This assay deals with T1, JAK2 JH1 JH2 V617F (Homo sapiens, UniProt O60674, V617F).
T1 construct: JAK2 JH1 JH2 V617F; purchased Thermo Fisher Scientific (Life Technologies) SelectScreen
As to the kind of experiment: SelectScreen Z'LYTE. The format is biochemical. The gist of the method: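 NU5455 was profiled across the SelectScreen Broad panel of kinase activity and binding assays. Z'LYTE reactions such as CSF1R ran at apparent Km ATP, while the Adapta CAMK1 assay used ATP listed as 10. Values are given as percent.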

T1 sequence (O60674 532-1132 V617F limits assumed): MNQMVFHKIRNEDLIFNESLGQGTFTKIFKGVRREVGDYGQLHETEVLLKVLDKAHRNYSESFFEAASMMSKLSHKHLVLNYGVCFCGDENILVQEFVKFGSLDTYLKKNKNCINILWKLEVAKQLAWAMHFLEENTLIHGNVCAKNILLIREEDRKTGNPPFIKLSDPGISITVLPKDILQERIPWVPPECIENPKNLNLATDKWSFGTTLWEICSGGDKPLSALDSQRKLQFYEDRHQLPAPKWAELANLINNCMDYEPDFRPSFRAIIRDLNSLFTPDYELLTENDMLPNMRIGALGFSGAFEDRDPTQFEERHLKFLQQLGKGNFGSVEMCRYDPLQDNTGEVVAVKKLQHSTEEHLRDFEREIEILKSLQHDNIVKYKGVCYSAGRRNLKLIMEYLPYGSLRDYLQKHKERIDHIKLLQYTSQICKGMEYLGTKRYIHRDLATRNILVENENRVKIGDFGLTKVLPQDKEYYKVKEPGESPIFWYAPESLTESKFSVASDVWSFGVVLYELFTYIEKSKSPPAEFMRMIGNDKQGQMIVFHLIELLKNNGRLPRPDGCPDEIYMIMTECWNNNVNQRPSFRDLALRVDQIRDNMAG

As for `CN(C(=O)CN1CCOCC1)c1ccc2sc3c(-c4cccc5c(=O)cc(N6CC7CCC(C6)O7)oc45)cccc3c2c1` [NU5455], the inhibition at 1 µM is -13.8%.

By inhibition is commonly meant the relative decrease from the control value, in per cent.

The record behind these values is publication PMC6934184, “Selective DNA-PKcs inhibition extends the therapeutic index of localized radiotherapy and chemotherapy” (The Journal of Clinical Investigation, 2019).
